Values joined by “and” are separate entries in the source; they are usually repeats but may differ in a detail not shown here. Equal values may be shown once.

The text below walks through data of patent US4228274A, “1-Substituted glycopyranosides” (Merck & Co., Inc., priority 1978, dated 1980).

Data set [1] concerns fat cells (isolated adipose cells). Put plainly: In Vitro Fat Cell Bioassay (insulin-like activity, conversion of glucose-1-14C to 14CO2). It counts as cell-based. To be noted: for 14-CO2: average CPM, baseline not subtracted, repeat lines are separate runs. As to the method:
It is known that fat cells incubated in Krebs-Ringer bicarbonate buffer containing glucose and albumin convert glucose-1-^14 C to ^14 CO2. […] This is the basis of the bioassay of insulin-like activity described in J. Gliemann, Diabetes, 14, 643(1965). The method for preparing the necessary isolated adipose cells retaining their metabolic activity is described in M. Rodbell, J. Biol. Chem., 239, 375(1964).
The compounds of the present invention have been bioassayed for their insulin-like activity essentially by the process set forth in Gliemann and Rodbell.
*All compounds were tested at 100 μg./ml.
**Insulin standard at 25 μu/ml.
1. An average CPM value is taken of each group.
2. The average value of Baseline (Buffer control) is subtracted from the
average of each of the remaining groups.
3. In order to obtain Relative Activity percentage, the average CPM value
for each compound (minus the average CPM value of the control group) is
divided by the average CPM value in the insulin standard (minus the
average CPM value of the controls), and the resultant value multiplied by
100 to obtain % activity.

For data set [2] the test system is unchanged. To be noted: fat cells in Krebs-Ringer bicarbonate buffer containing glucose and albumin; known from Gliemann; cited from earlier work.
[3] abbreviates: compounds tested at 100 μg./ml, baseline subtracted, relative to insulin standard 25 μu/ml = 100%.

Turning to `NCCCCCCO[C@H]1O[C@H](CO)[C@@H](O)[C@H](O)[C@@H]1O` [1-(6-aminohexyl) α-D-mannopyranoside, 1-(6-aminohexyl)-α-D-mannopyranoside], in data set [1] (compounds tested at 100 μg./ml), the 14-CO2 worked out at 3330 cpm. The activity at 100 µg/mL in data set [1] (setting [3]) worked out at 28%.

Consider `NCCCCCCS[C@@H]1O[C@H](CO)[C@@H](O)[C@H](O)[C@@H]1O` [1-[(6-aminohexyl)thio]-1-deoxy-β-D-mannopyranoside], for which the 14-CO2 in data set [1] (compounds tested at 100 μg./ml) is 4898 cpm and 5177 cpm. In data set [1] (setting [3]), the “Relative Activity %” value was determined as 78% and the activity at 100 µg/mL is 93%.

Compound `NCCCCCCC(=O)N[C@@H]1O[C@H](CO)[C@@H](O)[C@H](O)[C@@H]1O` [1-[(7-aminoheptanoyl)amino]-1-deoxy-β-D-mannopyranoside] came in with a 14-CO2 in data set [1] (compounds tested at 100 μg./ml) of 1952 cpm. The compound further displayed an activity at 100 µg/mL in data set [1] (setting [3]) of 26%.

As to Insulin: Insulin standard at 25 μu/ml, in data set [1] (Insulin standard at 25 μu/ml, reference set to 100%), the “Relative Activity %” value turned out to be 100%. In data set [2], the “stimulation of 14CO2 production” value was “stimulation of severalfold”.
